The text below walks through data of ChEMBL document CHEMBL4477207, “Discovery of Novel 3-Quinoline Carboxamides as Potent, Selective, and Orally Bioavailable Inhibitors of Ataxia Telangiectasia Mutated (ATM) Kinase” (J Med Chem, 2016).
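For logD in this document: determined by the shake flask method.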

One data set deals with Serine-protein kinase ATM (Homo sapiens, UniProt Q13315). As to the kind of experiment: Inhibition of ATM phosphorylation at Ser-1981 residue in human HT-29 cells incubated for 1 hr followed by X-ray irradiation by Hoechst staining based fluorescence plate reader analysis.
Sequence of Serine-protein kinase ATM (Q13315 whole entry): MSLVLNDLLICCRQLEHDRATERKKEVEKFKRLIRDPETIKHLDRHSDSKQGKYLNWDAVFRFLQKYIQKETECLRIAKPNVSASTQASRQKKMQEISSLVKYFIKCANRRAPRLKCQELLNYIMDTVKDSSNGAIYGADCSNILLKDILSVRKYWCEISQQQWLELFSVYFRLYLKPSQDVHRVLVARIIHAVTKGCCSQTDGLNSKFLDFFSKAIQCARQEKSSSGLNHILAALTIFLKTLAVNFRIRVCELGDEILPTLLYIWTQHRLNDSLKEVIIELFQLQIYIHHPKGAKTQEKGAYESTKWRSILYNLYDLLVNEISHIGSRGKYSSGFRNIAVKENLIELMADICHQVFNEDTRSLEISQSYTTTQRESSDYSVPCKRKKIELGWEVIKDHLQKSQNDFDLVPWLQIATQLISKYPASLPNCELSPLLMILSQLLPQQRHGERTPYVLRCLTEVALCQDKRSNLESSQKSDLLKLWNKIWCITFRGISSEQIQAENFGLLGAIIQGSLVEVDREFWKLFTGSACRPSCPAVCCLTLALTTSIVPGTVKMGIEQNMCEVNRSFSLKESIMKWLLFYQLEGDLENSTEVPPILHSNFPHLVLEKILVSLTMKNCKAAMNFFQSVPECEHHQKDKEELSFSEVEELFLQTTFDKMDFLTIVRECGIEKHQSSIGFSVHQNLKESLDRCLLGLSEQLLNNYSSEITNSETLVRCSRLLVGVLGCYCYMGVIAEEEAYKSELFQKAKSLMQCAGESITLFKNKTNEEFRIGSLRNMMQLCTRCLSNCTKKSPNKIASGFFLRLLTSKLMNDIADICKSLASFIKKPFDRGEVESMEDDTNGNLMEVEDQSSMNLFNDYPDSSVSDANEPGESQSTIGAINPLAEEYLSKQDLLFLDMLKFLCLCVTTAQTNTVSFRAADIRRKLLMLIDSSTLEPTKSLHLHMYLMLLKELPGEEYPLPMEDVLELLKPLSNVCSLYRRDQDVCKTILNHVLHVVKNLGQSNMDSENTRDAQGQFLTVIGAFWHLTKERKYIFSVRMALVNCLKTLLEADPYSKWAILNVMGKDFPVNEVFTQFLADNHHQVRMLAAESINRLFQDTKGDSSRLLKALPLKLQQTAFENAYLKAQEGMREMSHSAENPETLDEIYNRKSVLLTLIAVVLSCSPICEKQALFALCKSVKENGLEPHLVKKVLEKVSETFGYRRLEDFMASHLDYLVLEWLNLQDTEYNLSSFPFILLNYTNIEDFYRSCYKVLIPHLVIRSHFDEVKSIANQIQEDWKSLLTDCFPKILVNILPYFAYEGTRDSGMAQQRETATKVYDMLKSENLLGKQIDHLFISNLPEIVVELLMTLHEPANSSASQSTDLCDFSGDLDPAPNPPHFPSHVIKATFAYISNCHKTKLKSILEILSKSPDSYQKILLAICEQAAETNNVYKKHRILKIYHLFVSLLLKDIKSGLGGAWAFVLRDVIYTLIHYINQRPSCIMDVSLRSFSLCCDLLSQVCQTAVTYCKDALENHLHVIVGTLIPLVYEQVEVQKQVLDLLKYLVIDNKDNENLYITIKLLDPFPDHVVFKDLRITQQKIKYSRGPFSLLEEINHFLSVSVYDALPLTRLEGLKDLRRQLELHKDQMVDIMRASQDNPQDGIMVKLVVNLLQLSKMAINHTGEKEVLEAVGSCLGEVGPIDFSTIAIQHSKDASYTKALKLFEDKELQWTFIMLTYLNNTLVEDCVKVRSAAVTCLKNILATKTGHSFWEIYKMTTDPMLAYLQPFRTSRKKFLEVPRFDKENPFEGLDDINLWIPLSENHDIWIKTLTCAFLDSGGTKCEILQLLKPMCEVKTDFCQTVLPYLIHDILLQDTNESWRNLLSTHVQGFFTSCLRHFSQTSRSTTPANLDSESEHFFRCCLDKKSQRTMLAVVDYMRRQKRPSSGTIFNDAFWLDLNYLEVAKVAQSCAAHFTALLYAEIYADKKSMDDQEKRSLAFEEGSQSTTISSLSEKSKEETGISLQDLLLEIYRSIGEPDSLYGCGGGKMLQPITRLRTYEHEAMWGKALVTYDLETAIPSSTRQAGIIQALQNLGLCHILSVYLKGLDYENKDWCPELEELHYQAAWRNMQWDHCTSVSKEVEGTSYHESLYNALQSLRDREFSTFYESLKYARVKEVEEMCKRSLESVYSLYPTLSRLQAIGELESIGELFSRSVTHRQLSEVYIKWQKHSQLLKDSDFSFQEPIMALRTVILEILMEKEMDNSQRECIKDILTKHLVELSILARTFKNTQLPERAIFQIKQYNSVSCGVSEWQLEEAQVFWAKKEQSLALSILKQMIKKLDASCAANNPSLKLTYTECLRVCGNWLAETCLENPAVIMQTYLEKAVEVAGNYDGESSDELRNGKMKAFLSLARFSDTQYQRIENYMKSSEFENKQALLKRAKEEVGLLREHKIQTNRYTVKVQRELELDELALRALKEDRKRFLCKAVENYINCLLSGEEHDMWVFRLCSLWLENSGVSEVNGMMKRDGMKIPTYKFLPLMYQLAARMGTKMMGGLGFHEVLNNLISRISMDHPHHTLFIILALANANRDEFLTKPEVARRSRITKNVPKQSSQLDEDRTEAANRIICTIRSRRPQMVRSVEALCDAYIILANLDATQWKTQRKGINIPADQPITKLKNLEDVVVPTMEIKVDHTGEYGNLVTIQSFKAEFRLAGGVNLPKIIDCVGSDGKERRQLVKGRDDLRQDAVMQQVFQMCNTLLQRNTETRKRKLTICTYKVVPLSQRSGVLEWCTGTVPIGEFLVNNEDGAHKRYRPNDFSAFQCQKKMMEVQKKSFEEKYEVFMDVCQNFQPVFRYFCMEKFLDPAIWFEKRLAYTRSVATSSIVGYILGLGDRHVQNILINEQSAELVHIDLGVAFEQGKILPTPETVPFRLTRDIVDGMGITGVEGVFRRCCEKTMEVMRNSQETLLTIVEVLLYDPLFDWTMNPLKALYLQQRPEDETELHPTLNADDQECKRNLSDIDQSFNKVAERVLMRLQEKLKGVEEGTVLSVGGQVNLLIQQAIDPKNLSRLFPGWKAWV
Details: not given
Type of data set: cell-based.
As to `C[C@H](Nc1c(C(N)=O)cnc2ccc(-c3cccnc3)cc12)C1CCOCC1`, half-maximal inhibition (IC50) was put at 0.168 µM.

In turn, `NC(=O)c1cnc2ccc(-c3cccnc3)cc2c1NC1CCCC1` showed an IC50 of 0.137 µM.

Turning to `C[C@@H](Nc1c(C(N)=O)cnc2ccc(-c3cccnc3)cc12)C1CCOCC1`, half-maximal inhibition (IC50) required 0.73 µM.

Take `NC(=O)c1cnc2c(Cl)cc(-c3cccnc3)cc2c1NC1CCOCC1`: the IC50 is greater than 30 µM.

`CNC(=O)c1cnc2ccc(-c3cccnc3)cc2c1N[C@H](C)c1ccc(Cl)cc1` displayed an IC50 greater than 30 µM.

Molecule `NC(=O)c1cnc2cc(Cl)c(-c3cccnc3)cc2c1NC1CCOCC1` had an IC50 of 3.25 µM.

`NC(=O)c1cnc2ccc(-c3cccnc3)cc2c1SC1CCCC1`: the IC50 was 9.7 µM.

The molecule `CCC(CC)CNc1c(C(N)=O)cnc2ccc(-c3ccc(CS(C)(=O)=O)nc3)cc12` showed an IC50 of 0.039 µM.

The molecule `CCC(CC)CNc1c(C(N)=O)cnc2ccc(-c3ccncc3)cc12` gave an IC50 of 0.418 µM.

Molecule `C[C@@H](Nc1c(C(=O)O)cnc2ccc(-c3cccnc3)cc12)c1ccc(Cl)cc1` had an IC50 greater than 30 µM.

For the molecule `CCC(CC)CNc1c(C(N)=O)cnc2ccc(-c3cnn(C)c3)cc12`, half-maximal inhibition (IC50) required 0.525 µM.

Regarding `CCC(CC)CNc1c(C(N)=O)c(C)nc2ccc(-c3cccnc3)cc12`, the IC50 is greater than 30 µM.

In the case of `NC(=O)c1cnc2c(F)cc(-c3cccnc3)cc2c1NC1CCOCC1`, the IC50 was greater than 30 µM.

`C[C@@H](Nc1ccnc2ccc(-c3cccnc3)cc12)c1ccc(Cl)cc1` yielded an IC50 greater than 30 µM.

Another data set concerns the target Serine/threonine-protein kinase ATR (Homo sapiens, UniProt Q13535). As to the kind of experiment: Inhibition of ATR in human HT-29 cells assessed as reduction in Chk1 phosphorylation at Ser-345 residue after 60 mins in presence of 4-nitroquinoline-1-oxide by Hoechst 33258 staining based plate reader analysis. Format: cell-based.
Details: not given
Consider `C[C@H](Nc1c(C(N)=O)cnc2ccc(-c3cccnc3)cc12)C1CCOCC1`, for which the IC50 is greater than 14 µM.

With `NC(=O)c1cnc2ccc(-c3cccnc3)cc2c1NC1CCCC1`, the half-maximal inhibitory concentration (IC50) stood at 1.2 µM.

As to `C[C@@H](Nc1c(C(N)=O)cnc2ccc(-c3cccnc3)cc12)C1CCOCC1`, the IC50 was determined as 3.5 µM.

As for `NC(=O)c1cnc2c(Cl)cc(-c3cccnc3)cc2c1NC1CCOCC1`, the IC50 was greater than 30 µM.

Regarding `CNC(=O)c1cnc2ccc(-c3cccnc3)cc2c1N[C@H](C)c1ccc(Cl)cc1`, the 50% inhibitory concentration (IC50) is greater than 30 µM.

On to `NC(=O)c1cnc2cc(Cl)c(-c3cccnc3)cc2c1NC1CCOCC1`, for which the IC50 was greater than 30 µM.

With `NC(=O)c1cnc2ccc(-c3cccnc3)cc2c1SC1CCCC1`, the IC50 is greater than 23 µM.

With `CCC(CC)CNc1c(C(N)=O)cnc2ccc(-c3ccc(CS(C)(=O)=O)nc3)cc12`, the IC50 was greater than 30 µM.

Regarding `CCC(CC)CNc1c(C(N)=O)cnc2ccc(-c3ccncc3)cc12`, the IC50 turned out to be 0.73 µM.

As to `C[C@@H](Nc1c(C(=O)O)cnc2ccc(-c3cccnc3)cc12)c1ccc(Cl)cc1`, the half-maximal inhibitory concentration (IC50) is greater than 30 µM.

As for `CCC(CC)CNc1c(C(N)=O)cnc2ccc(-c3cnn(C)c3)cc12`, the IC50 was 7.1 µM.

As for `CCC(CC)CNc1c(C(N)=O)c(C)nc2ccc(-c3cccnc3)cc12`, the IC50 was greater than 30 µM.

Turning to `NC(=O)c1cnc2c(F)cc(-c3cccnc3)cc2c1NC1CCOCC1`, the IC50 was greater than 30 µM.

Consider `C[C@@H](Nc1ccnc2ccc(-c3cccnc3)cc12)c1ccc(Cl)cc1`, for which the IC50 is greater than 30 µM.

The target of another data set is Voltage-gated inwardly rectifying potassium channel KCNH2 (Homo sapiens, UniProt Q12809).
Sequence of Voltage-gated inwardly rectifying potassium channel KCNH2 (Q12809 whole entry): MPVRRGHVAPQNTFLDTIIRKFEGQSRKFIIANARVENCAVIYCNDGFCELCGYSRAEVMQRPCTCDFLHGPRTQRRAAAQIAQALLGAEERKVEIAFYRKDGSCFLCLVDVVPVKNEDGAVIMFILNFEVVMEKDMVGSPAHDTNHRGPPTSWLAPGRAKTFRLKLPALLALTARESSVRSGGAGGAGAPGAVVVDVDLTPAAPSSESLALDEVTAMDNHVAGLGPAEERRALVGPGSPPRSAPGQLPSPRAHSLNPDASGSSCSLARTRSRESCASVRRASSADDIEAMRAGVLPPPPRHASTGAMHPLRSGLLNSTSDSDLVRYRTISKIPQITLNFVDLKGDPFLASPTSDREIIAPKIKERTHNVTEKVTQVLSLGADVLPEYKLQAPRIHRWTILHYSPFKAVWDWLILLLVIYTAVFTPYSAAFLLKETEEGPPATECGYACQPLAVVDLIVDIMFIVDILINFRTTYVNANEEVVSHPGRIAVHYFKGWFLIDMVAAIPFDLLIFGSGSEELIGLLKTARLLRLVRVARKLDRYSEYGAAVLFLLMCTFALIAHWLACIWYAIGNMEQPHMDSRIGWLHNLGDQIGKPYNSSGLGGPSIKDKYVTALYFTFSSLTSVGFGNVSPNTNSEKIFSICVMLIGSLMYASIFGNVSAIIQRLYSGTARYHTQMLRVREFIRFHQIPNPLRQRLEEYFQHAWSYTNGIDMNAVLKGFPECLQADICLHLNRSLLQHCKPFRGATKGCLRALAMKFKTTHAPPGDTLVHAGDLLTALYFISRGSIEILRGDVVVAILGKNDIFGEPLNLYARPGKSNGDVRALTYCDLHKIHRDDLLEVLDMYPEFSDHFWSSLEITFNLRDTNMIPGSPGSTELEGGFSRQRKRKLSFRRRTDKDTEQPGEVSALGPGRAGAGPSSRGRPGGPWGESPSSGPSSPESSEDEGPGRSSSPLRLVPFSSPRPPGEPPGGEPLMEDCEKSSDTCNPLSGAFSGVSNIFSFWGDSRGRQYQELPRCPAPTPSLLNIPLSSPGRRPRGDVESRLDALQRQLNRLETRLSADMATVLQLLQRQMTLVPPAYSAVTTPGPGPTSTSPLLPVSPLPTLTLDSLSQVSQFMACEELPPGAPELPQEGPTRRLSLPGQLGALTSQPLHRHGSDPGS
Experiment: not given
Details: not given
Regarding `C[C@H](Nc1c(C(N)=O)cnc2ccc(-c3cccnc3)cc12)C1CCOCC1`, the IC50 came out at 3.6 µM.

`NC(=O)c1cnc2ccc(-c3cccnc3)cc2c1NC1CCCC1` returned an IC50 of 0.57 µM.

On to `C[C@@H](Nc1c(C(N)=O)cnc2ccc(-c3cccnc3)cc12)C1CCOCC1`, for which the IC50 stood at 4.3 µM.

Take `NC(=O)c1cnc2cc(Cl)c(-c3cccnc3)cc2c1NC1CCOCC1`: half-maximal inhibition (IC50) required 1.2 µM.

In turn, `NC(=O)c1cnc2ccc(-c3cccnc3)cc2c1SC1CCCC1` displayed an IC50 of 5.1 µM.

`CCC(CC)CNc1c(C(N)=O)cnc2ccc(-c3ccc(CS(C)(=O)=O)nc3)cc12` showed an IC50 of 1.9 µM.

`CCC(CC)CNc1c(C(N)=O)c(C)nc2ccc(-c3cccnc3)cc12` came in with an IC50 of 0.68 µM.

Test system in the next data set: not listed separately
Description: in vitro. Conditions: human, hepatocytes.
Regarding `C[C@H](Nc1c(C(N)=O)cnc2ccc(-c3cccnc3)cc12)C1CCOCC1`, the hepatocyte CLint at 1.5 h was 14 µL/min/1e6 cells.

On to `NC(=O)c1cnc2ccc(-c3cccnc3)cc2c1NC1CCCC1`, for which the hepatocyte CLint at 1.5 h turned out to be 23 µL/min/1e6 cells.

As for `C[C@@H](Nc1c(C(N)=O)cnc2ccc(-c3cccnc3)cc12)C1CCOCC1`, the hepatocyte CLint at 1.5 h was found to be 14 µL/min/1e6 cells.

With `NC(=O)c1cnc2c(Cl)cc(-c3cccnc3)cc2c1NC1CCOCC1`, the hepatocyte CLint at 1.5 h was less than 1 µL/min/1e6 cells.

Take `NC(=O)c1cnc2cc(Cl)c(-c3cccnc3)cc2c1NC1CCOCC1`: the hepatocyte CLint at 1.5 h amounted to 4.3 µL/min/1e6 cells.

As for `NC(=O)c1cnc2ccc(-c3cccnc3)cc2c1SC1CCCC1`, the hepatocyte CLint at 1.5 h was found to be 18 µL/min/1e6 cells.

Molecule `CCC(CC)CNc1c(C(N)=O)cnc2ccc(-c3ccc(CS(C)(=O)=O)nc3)cc12` showed a hepatocyte CLint at 1.5 h of 15 µL/min/1e6 cells.

`CCC(CC)CNc1c(C(N)=O)cnc2ccc(-c3ccncc3)cc12` displayed a hepatocyte CLint at 1.5 h of 37 µL/min/1e6 cells.

Molecule `CCC(CC)CNc1c(C(N)=O)c(C)nc2ccc(-c3cccnc3)cc12` displayed a hepatocyte CLint at 1.5 h of 6 µL/min/1e6 cells.

Test system in another data set: not listed separately
Description: in vitro. Conditions: rat, hepatocytes.
The molecule `C[C@H](Nc1c(C(N)=O)cnc2ccc(-c3cccnc3)cc12)C1CCOCC1` showed a hepatocyte CLint at 1.5 h of 38 µL/min/1e6 cells.

The molecule `NC(=O)c1cnc2ccc(-c3cccnc3)cc2c1NC1CCCC1` had a hepatocyte CLint at 1.5 h of 65 µL/min/1e6 cells.

In turn, `C[C@@H](Nc1c(C(N)=O)cnc2ccc(-c3cccnc3)cc12)C1CCOCC1` had a hepatocyte CLint at 1.5 h of 46 µL/min/1e6 cells.

The molecule `NC(=O)c1cnc2c(Cl)cc(-c3cccnc3)cc2c1NC1CCOCC1` showed a hepatocyte CLint at 1.5 h of 7.3 µL/min/1e6 cells.

The molecule `NC(=O)c1cnc2cc(Cl)c(-c3cccnc3)cc2c1NC1CCOCC1` gave a hepatocyte CLint at 1.5 h of 15 µL/min/1e6 cells.

As for `NC(=O)c1cnc2ccc(-c3cccnc3)cc2c1SC1CCCC1`, the hepatocyte CLint at 1.5 h was 120 µL/min/1e6 cells.

For `CCC(CC)CNc1c(C(N)=O)cnc2ccc(-c3ccc(CS(C)(=O)=O)nc3)cc12`, the hepatocyte CLint at 1.5 h amounted to 200 µL/min/1e6 cells.

The molecule `CCC(CC)CNc1c(C(N)=O)cnc2ccc(-c3ccncc3)cc12` came in with a hepatocyte CLint at 1.5 h of 76 µL/min/1e6 cells.

As to `CCC(CC)CNc1c(C(N)=O)c(C)nc2ccc(-c3cccnc3)cc12`, the hepatocyte CLint at 1.5 h was 43 µL/min/1e6 cells.

Test system in the next data set: not listed separately
Description: physchem. Particulars: octanol/buffer, pH 7.4.
With `C[C@H](Nc1c(C(N)=O)cnc2ccc(-c3cccnc3)cc12)C1CCOCC1`, the logD was 2.5.

`NC(=O)c1cnc2ccc(-c3cccnc3)cc2c1NC1CCCC1` displayed a logD of 3.6.

On to `C[C@@H](Nc1c(C(N)=O)cnc2ccc(-c3cccnc3)cc12)C1CCOCC1`, for which the logD was determined as 2.3.

Take `NC(=O)c1cnc2c(Cl)cc(-c3cccnc3)cc2c1NC1CCOCC1`: the logD is 2.1.

For `NC(=O)c1cnc2cc(Cl)c(-c3cccnc3)cc2c1NC1CCOCC1`, the logD was found to be 2.7.

In turn, `NC(=O)c1cnc2ccc(-c3cccnc3)cc2c1SC1CCCC1` returned a logD of 3.2.

`CCC(CC)CNc1c(C(N)=O)cnc2ccc(-c3ccc(CS(C)(=O)=O)nc3)cc12` gave a logD of 3.1.

`CCC(CC)CNc1c(C(N)=O)cnc2ccc(-c3ccncc3)cc12`: the logD turned out to be 3.3.

In turn, `CCC(CC)CNc1c(C(N)=O)c(C)nc2ccc(-c3cccnc3)cc12` displayed a logD of 2.7.

For orientation: IC50 means the concentration needed to halve the response being measured. In general, hepatocyte CLint refers to the capacity of the preparation to metabolise the compound, expressed as a volume cleared per time. Read a high hepatocyte CLint as faster metabolism. By logD is commonly meant lipophilicity at a set pH, counting ionised and neutral species.
